# According to US20030157640A1, “Aequorin as a growth marker in yeast” (priority 2001, published 2003):
# Assays:
# pheromone receptor Ste2 [1] = biological target: T1, pheromone receptor Ste2 (Saccharomyces cerevisiae, UniProt D6VTK4); assay: Pheromone pathway activity reporter assay, 4PRE-Aequorin reporter in yeast; assay type: cell-based
# T1 construct: As a yeast strain W303 MAT a, far::hisG, sst2::URA3^FOA, fus1::HIS3 was used; endogenous in cells; host or cells: yeast strain W303 MATa far::hisG sst2::URA3^FOA fus1::HIS3, transformed with reporter plasmid p78 4PRE-AEQ or p78 4PRE-LacZ
# T1 sequence (D6VTK4 1-431): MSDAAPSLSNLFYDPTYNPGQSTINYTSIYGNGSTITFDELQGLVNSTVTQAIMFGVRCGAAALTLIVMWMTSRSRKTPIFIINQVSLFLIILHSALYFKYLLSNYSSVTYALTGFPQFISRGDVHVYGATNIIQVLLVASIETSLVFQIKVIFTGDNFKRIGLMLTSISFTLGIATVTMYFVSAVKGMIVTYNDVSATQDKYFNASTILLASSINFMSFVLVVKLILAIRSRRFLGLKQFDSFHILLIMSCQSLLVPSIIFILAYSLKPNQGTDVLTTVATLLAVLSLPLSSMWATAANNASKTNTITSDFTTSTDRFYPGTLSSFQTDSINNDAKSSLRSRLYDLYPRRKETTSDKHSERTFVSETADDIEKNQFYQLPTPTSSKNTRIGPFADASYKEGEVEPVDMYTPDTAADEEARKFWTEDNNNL
# Experimental: (§1) As a yeast strain W303 MAT a, far::hisG, sst2::URA3^FOA, fus1::HIS3 was used.
# The cells are distributed and/or grown in a white 96-well plate, in a volume of 100 μl.
# 30 minutes before the measurement time point, 10 μl of a 5 μM coelenterazine (Molecular Probes) solution is distributed in each well (to obtain a 0.5 μM final concentration) to load the cells.
# The plate is then incubated at 30° C. for the last 30 minutes.
# Aequorin detection is made in a luminometer with injecting system (Luminoskan, Labsystems). For each well, immediately after injection of a 10 mM CaCl2 solution (1M CaCl2 diluted in lysis buffer Y-PER from Pierce), the luminescent signal is integrated for 15 seconds.
# To avoid the intermediate step of loading, it is possible to introduce coelenterazine in the medium at the beginning of the assay: coelenterazine is added at a concentration of 0.5 μM.
# (§2) In this assay, the expression of the two reporter genes depends on the activity of the pheromone mating pathway (Leberer et al., 1997). The minimal promoter 4PRE amplified from the FUS1 promoter region (Hagen et al., 1991) is activated only in case of a mating signal. This signal is elicited by stimulation of the pheromone receptor Ste2 by its ligand α-factor.
# (§3) Three colonies of the yeast strain transformed with either p78 4PRE-AEQ or p78 4PRE-LacZ plasmids were grown in the appropiate medium (SC Glucose—Trp) to stationary phase and then diluted in the same medium (with 0.5 μM coelenterazin for the aequorin strain) containing 0; 10^−7; 10^−9; 10^−11M α-factor (Sigma). The plates were then shaken at 30° C., 700 r.p.m., for 3, 6 and 24 hours.
# (§4) To allow the comparison between the two reporters and the different stimulation times, the measured detection numbers of Aequorin (FIG. 5) and β-Galactosidase (FIG. 6) are expressed as a ratio: stimulated/non stimulated.
# pheromone receptor Ste2 [2] = biological target: T1, pheromone receptor Ste2; assay: Pheromone pathway activity reporter assay, 4PRE-LacZ (β-Galactosidase) reporter in yeast; assay type: cell-based
# Experimental: as §1
# The cells are distributed and/or grown in a white 96-well plate, in a volume of 100 μl. At the measurement time point, each well receives 100 μl of a β-Galactosidase detection mix (Gal-screen, Tropix).
# The plate is incubated for one hour at 28° C.
# β-Galactosidase signal is read in a luminometer; the luminescent signal is integrated for 0.5 seconds.
# as §2, §3, §4
# GPCR Ste2 = biological target: T2, GPCR Ste2 (Saccharomyces cerevisiae, UniProt D6VTK4); settings: yeast cell, basal level approximately 100 nM; Iida et al., 1990; cited from earlier work
# T2 construct: The addition of α-factor to a yeast cell (i.e. stimulation of the GPCR Ste2) raises [Ca^2+]i
# T2 sequence (D6VTK4 1-431): T1 sequence (D6VTK4 1-431)
# [3] = 1 nM α-factor, 3 hours of stimulation
# [4] = 1 nM α-factor, 6 hours of stimulation
# [5] = 100 nM α-factor, 3 hours of stimulation
# [6] = 100 nM α-factor, 6 hours of stimulation
substance,measurement,setting,value
α-factor,Aequorin detection ratio stimulated/non stimulated,pheromone receptor Ste2 [1]; [3],8
same,Aequorin detection ratio stimulated/non stimulated,pheromone receptor Ste2 [1]; [4],11
same,Aequorin detection ratio stimulated/non stimulated,pheromone receptor Ste2 [1]; [5],24
same,Aequorin detection ratio stimulated/non stimulated,pheromone receptor Ste2 [1]; [6],36
same,β-Galactosidase detection ratio stimulated/non stimulated,pheromone receptor Ste2 [2]; [3],4
same,β-Galactosidase detection ratio stimulated/non stimulated,pheromone receptor Ste2 [2]; [4],7
same,β-Galactosidase detection ratio stimulated/non stimulated,pheromone receptor Ste2 [2]; [5],7
same,β-Galactosidase detection ratio stimulated/non stimulated,pheromone receptor Ste2 [2]; [6],7
same,[Ca2+]i after addition of α-factor,GPCR Ste2,a few hundred
